Earlier results, collected in patent publication US9737644B2, “Medical device coatings” (TYRX, Inc., priority 2010, dated 2017).

Test system: myofibroblast formation
Conditions: animal studies, Ajmal et al. (2003)

With O=S(=O)([O-])CCS.[Na+] [Mesna, sodium 2-mercaptoethane sulfonate] as the compound, how does the myofibroblast formation read?
The myofibroblast formation was “diminish myofibroblast formation”.
